Measurements: publication PMC10459814

Key:
[1] = test system: CT26 murine colon carcinoma cells; assay: In vivo antitumor efficacy and safety in CT26 tumor-bearing BALB/c mice; settings: for tumor weight reduction / relative tumor volume growth rate (T/C): CT26 tumor-bearing BALB/c mice; for tumor weight reduction: 21 days
Text: Given its promising in vitro enzymatic potencies, compound NK3 was further evaluated for antitumor efficacy in vivo with a model by injecting immunocompetent BALB/c mice with CT26 murine colon carcinoma cells (Figure 5). CT26 cells, derived from the epithelial glands of BALB/C mice with colon cancer, are commonly employed as a model for investigating immunotherapies and studying host immune responses. […] Dose-dependent growth-inhibitory potency of NK3 was observed (Figure 5B).
Figure 5 In vivo antitumor activity of compound NK3 in CT26 tumor-bearing mice. […] (B) Tumor weight of the excised tumors of each group. (C) Tumor volume of the mice in each group during the observation period. (D) Body weight of the mice from each group at the end of the observation period. Body weight change of each group of mice. The data were presented as the mean ± SD. p < 0.05 (versus the vehicle control group). The antitumor assay in CT26 tumor-bearing mice was carried out in one experiment with previous work.
Pathological analysis of tissue sections from major organs (heart, liver, lung, spleen, and kidney) of CT26 tumor-bearing mice. Hematoxylin and eosin (H&E) were used to stain the organs with representative images captured. The H&E staining of CT26 tumor-bearing mice was carried out in one experiment with previous work.

Hct-116 = assay: MTT cytotoxicity assay, Hct-116; type: cell-based; settings: Homo sapiens, mean ± SD
Procedure: (§1) The cytotoxic activity of these three compounds was evaluated against HepG2, Hct-116, and SKOV3 cancer cells by MTT assay, using doxorubicin (DOX) as the positive control.

SKOV3 = assay: MTT cytotoxicity assay, SKOV3; type: cell-based; settings: Homo sapiens, SK-OV-3, mean ± SD
Procedure: as §1

HepG2 = assay: MTT cytotoxicity assay, HepG2; type: cell-based; settings: Homo sapiens, mean ± SD
Procedure: as §1

human IDO1 [2] = molecular target: T1, human IDO1 (Homo sapiens, UniProt P14902); assay: IDO1 standard enzymatic inhibition assay
T1 sequence (P14902 whole entry): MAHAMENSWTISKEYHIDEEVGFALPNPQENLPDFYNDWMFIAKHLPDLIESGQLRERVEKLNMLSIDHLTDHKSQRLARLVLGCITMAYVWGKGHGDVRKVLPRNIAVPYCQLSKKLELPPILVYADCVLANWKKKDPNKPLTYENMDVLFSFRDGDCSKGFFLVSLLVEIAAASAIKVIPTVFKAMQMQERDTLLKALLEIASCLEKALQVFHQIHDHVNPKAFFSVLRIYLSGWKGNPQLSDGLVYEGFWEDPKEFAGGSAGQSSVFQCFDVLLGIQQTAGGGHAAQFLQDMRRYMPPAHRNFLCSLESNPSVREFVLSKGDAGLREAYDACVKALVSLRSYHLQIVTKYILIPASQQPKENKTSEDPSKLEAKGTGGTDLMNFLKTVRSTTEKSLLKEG

recombinant STAT3 = recombinant STAT3 (Homo sapiens, UniProt P40763); assay: SPR binding assay (BIAcore) with STAT3; settings: recombinant STAT3, 0.078-10.0 μM, read-out: KD (equilibrium dissociation constant) with STAT3
Sequence of recombinant STAT3 (P40763 whole entry, species assumed): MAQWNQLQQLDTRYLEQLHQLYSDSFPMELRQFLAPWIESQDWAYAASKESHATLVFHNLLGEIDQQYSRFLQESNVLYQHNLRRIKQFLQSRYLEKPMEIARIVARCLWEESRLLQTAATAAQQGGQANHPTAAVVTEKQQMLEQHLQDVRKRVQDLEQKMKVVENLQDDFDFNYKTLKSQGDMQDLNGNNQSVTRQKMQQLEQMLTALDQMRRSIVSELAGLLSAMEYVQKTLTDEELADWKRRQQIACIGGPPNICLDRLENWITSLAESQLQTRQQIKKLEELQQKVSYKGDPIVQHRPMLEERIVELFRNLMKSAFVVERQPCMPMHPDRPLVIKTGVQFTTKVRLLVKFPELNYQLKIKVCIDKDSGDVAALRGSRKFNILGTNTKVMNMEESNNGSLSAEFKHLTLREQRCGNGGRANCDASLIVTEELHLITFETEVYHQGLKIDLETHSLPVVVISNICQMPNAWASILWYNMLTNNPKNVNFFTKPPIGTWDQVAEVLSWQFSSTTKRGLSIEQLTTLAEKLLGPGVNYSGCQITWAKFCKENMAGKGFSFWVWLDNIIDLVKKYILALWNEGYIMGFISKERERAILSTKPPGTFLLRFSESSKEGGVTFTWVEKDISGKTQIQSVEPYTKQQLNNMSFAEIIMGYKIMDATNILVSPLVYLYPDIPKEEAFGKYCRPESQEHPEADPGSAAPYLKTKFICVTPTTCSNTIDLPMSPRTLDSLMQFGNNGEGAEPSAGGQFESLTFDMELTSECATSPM
Procedure: In order to further investigate the direct interaction between NK3 and STAT3, we conducted an SPR binding assay.
Figure 8 The binding affinity of NK3 with recombinant STAT3 determined by the SPR assay. Concentration from top to bottom: 0.078 μM, 0.156 μM, 0.313 μM, 0.625 μM, 1.25 μM, 2.5 μM, 5.0 μM, and 10.0 μM.

[3] = test system: human liver cancer HepG2 cells xenograft; assay: In vivo antitumor efficacy in nude mice bearing HepG2 xenograft; settings: for tumor growth inhibition (tumor weight): 21 days
Text: In order to ascertain the viability of IDO1 as an alternative target for compound NK3, a xenograft model was established by inoculating nude mice with human liver cancer HepG2 cells, subsequent to two injections of two doses of NK3 administered at three-day intervals. […] The antitumor effect of NK3 was also reflected in a delayed increase in xenograft volume (Figure 7C).
Figure 7 In vivo antitumor activity of compound NK3 in nude mice bearing HepG2 xenograft model. (A) The images of the harvested tumors from the mice after administration with NK3 (10 and 20 mg/kg) and the positive control doxorubicin (DOX) (5 mg/kg) every 3 days for 3 weeks. (B) Tumor weight of the excised tumors of each group. (C) Tumor volume of the mice in each group during the observation period. (D) Body weight of the mice from each group at the end of the observation period. Body weight change of each group of mice. The data were presented as the mean ± SD. p < 0.05 (versus the vehicle control group). The antitumor assay in nude mice was carried out in one experiment with previous work. TEXT PRINTED IN THE PICTURE: (B) Dox: 53.0% (5 mg/kg) | (B) NK-3: 61.1% (10 mg/kg); 64.4% (20 mg/kg) DOUBTS OF THE COPYIST ABOUT THIS PICTURE: Panel B: the picture prints no measure for the percentages over the bars (53.0%, 61.1%, 64.4%). The axis reads only 'Tumor weight (g)', so they are copied without a measure.

[4] = test system: STAT3 nuclear translocation; assay: Immunofluorescence staining of IL-6-induced STAT3 nuclear translocation in HepG2 cells; type: cell-based, human; settings: 2 μM, IL-6 stimulation 30 min
Procedure: The central role of nuclear translocation in the functioning of transcription factors is evident. The activation of STAT3 transcription is reliant on its nuclear translocation and subsequent binding to target DNA [43], so we further investigated the inhibitory effect of NK3 on preventing STAT3 from translocating to the nucleus by immunofluorescence staining. To this end, HepG2 cells were treated with 2 μM NK3 for […], and then IL-6 was added to stimulate STAT3 translocation for 30 min.
Figure 9 NK3 inhibited the nuclear translocation of STAT3. […] Cells were treated with 2 μM NK3 for 12 h with or without pre-treatment with 50 ng/mL of IL-6 for 30 min. Then, cells were fixed and stained with anti-p-STAT3 and DAPI before being subjected to Zeiss LSM700 Confocal Microscope for analysis.

human IDO1 [5] = molecular target: T1, human IDO1; assay: SPR binding assay (Biacore T200) with IDO1; settings: immobilized recombinant IDO1, 0.078-10.0 μM, read-out: KD (equilibrium dissociation constant) with IDO1
Procedure: A surface plasmon resonance (SPR)-based binding assay was conducted to validate the direct interaction between NK3 and IDO1 protein using a Biacore T200 optical biosensor. This analytical method is valuable for determining the kinetic and thermodynamic parameters of ligand–protein complex formation and is widely employed in the study of enzyme–enzyme/inhibitor interactions. The binding affinity between compound NK3 and IDO1 was assessed utilizing Biacore analysis software, accompanied by measurements of kinetic association and dissociation. As depicted in Figure 3, compound NK3 efficiently interacted with the immobilized protein to induce a concentration-dependent response for association or dissociation, respectively. […] The binding assays confirmed the direct binding of compound NK3 to IDO1 protein.
Figure 3 The binding affinity of NK3 with recombinant IDO1 determined by the SPR assay. Concentration from top to bottom: 0.078 μM, 0.156 μM, 0.313 μM, 0.625 μM, 1.25 μM, 2.5 μM, 5.0 μM, and 10.0 μM.

| melting point [°C] | IC50 (human IDO1 [2]) [nM] | Structure (SMILES) | tumor weight reduction ([1]; 100 mg/kg intraperitoneal) [%] | IC50 (Hct-116) [µM] | IC50 (SKOV3) [µM] | IC50 (HepG2) [µM] | further results |
| --- | --- | --- | --- | --- | --- | --- | --- |
|  |  | Cn1cc(C[C@H](N)C(=O)O)c2ccccc21 [Compound 1-MT, 1-methyl-L-tryptophan, reference compound] | 45.6 |  |  |  |  |
|  |  | COc1cccc2c1C(=O)c1c(O)c3c(c(O)c1C2=O)C[C@@](O)(C(=O)CO)C[C@@H]3O[C@H]1C[C@H](N)[C@H](O)[C@H](C)O1 [DOX, doxorubicin, reference compound] |  | 0.37 ± 0.02 | 0.58 ± 0.28 | 0.28 ± 0.03 |  |
|  |  | Nc1nonc1C(=NO)Nc1ccc(F)c(Cl)c1 [IDO5L, reference compound] | 70.9 | > 40 | > 40 | > 40 |  |
| 120.3 to 121.8 | 3450 | CCCCC(CC)CNC(=O)C(Cc1ccccc1)NC1=C/C(=N/O)c2ccccc2C1=O (stereo not shown) [NK1, (Z)-N-(2-ethylhexyl)-2-((4-(hydroxyimino)-1-oxo-1,4-dihydronaphthalen-2-yl)amino)-3-phenylpropanamide] |  | 0.49 ± 0.14 | 0.95 ± 0.18 | 1.28 ± 0.27 |  |
| 197.2 to 198.6 | 8220 | O=C1C(NC(Cc2ccccc2)C(=O)NCCc2ccccc2)=C/C(=N/O)c2ccccc21 (stereo not shown) [NK2, (Z)-2-((4-(hydroxyimino)-1-oxo-1,4-dihydronaphthalen-2-yl)amino)-N-phenethyl-3-phenylpropanamide] |  | 5.84 ± 1.34 | 4.25 ± 1.65 | 5.08 ± 0.33 |  |

| Structure (SMILES) | melting point [°C] | IC50 (human IDO1 [2]) [nM] | tumor weight reduction ([1]; 100 mg/kg intraperitoneal) [%] | IC50 (Hct-116) [µM] | IC50 (SKOV3) [µM] | IC50 (HepG2) [µM] | further results |
| --- | --- | --- | --- | --- | --- | --- | --- |
| CCCNC(=O)C(Cc1ccccc1)NC1=C/C(=N/O)c2ccccc2C1=O (stereo not shown) [NK3, (Z)-2-((4-(hydroxyimino)-1-oxo-1,4-dihydronaphthalen-2-yl)amino)-3-phenyl-N-propylpropanamide] |  | 60 | 65.8 | 0.18 ± 0.04 | 0.48 ± 0.23 | 0.16 ± 0.04 | Kd (recombinant STAT3): 170 nM; tumor growth inhibition (tumor weight) ([3]; 10 mg/kg intravenous every 3 days): 61.1%; tumor growth inhibition (tumor weight) ([3]; 20 mg/kg intravenous every 3 days): 64.4%; body weight / tolerability ([3]; compared to DOX): did not cause significant weight loss; relative tumor volume growth rate (T/C) ([1]; 50 mg/kg): 56.00%; tumor weight reduction ([1]; 50 mg/kg intraperitoneal): 42.8%; relative tumor volume growth rate (T/C) ([1]; 100 mg/kg): 29.07%; pathology (H&E) of heart, liver, spleen, lung, kidney ([1]; CT26 tumor-bearing mice): no obvious morphological and pathological changes; body weight change versus vehicle ([1]; CT26 tumor-bearing mice, 21 days of treatment): no significant change in body weight; STAT3 nuclear translocation [4]: significantly inhibited; Kd (human IDO1 [5]): 160 nM |
